The text below walks through data of paper PMC12162873, “Modulating phosphatase DUSP22 with BML-260 ameliorates skeletal muscle wasting via Akt independent JNK-FOXO3a repression” (EMBO Molecular Medicine, 2025).

The test system of one data set is DUSP22. Also on record: method as in Cutshall et al, 2005. As to conditions: ref Cutshall et al, 2005, cited from earlier work.
A short description of data set [1]: Pharmacokinetics analysis, plasma (LC-MS/MS). Set-up: peak plasma concentration after injection: unit not given here. As to conditions: for Plasma Conc. / Plasma Conc., Mean / concentration at 0.25 h / concentration at 0.5 h / concentration at 1.5 h / concentration at 2 h / concentration at 8 h: 5 mg/kg (IP); for concentration at 0.25 h / concentration at 0.5 h / concentration at 1.5 h / concentration at 2 h / concentration at 8 h: intraperitoneal, 5 mg/kg. The format is in vivo, mouse. As to the method: Assessment of BML-260 pharmacokinetics (PK) was carried out by the company Chaon, Yongin-si, Republic of Korea. BML-260 was administered intraperitoneally at a dose of 5 mg/kg in an injection volume of 10 mL/kg. A total of 21 6-week-old male C57BL/6J mice were divided into two groups as follows: 1) PK (plasma) group (3 mice) and 2) PK (TA muscle) group (18 mice across 6 time points).
[…] Blood was centrifuged to obtain plasma that was then stored at −80 °C. For the PK (TA muscle) group, mice were euthanized at 0.5, 1, 1.5, 2, 6, and 12 h post-administration. The TA muscle was weighed and stored at −80 °C.
BML-260 levels in plasma and tissue samples were analyzed with liquid chromatography-tandem mass spectrometry (LC-MS/MS) using an Agilent 1200 HPLC system coupled with an AB Sciex 4000 QTrap MS/MS (Agilent Technologies, CA, USA). Quantification limits were determined based on a signal-to-noise ratio greater than 10, with precision below 20% and accuracy between 80% and 120%.

The subject of another data set is C2C12 murine myotubes. Put plainly: RNA Seq of DUSP22 expression in Dex-treated C2C12 myotubes. Type of data set: cell-based, mouse. As to conditions: C2C12 myotubes treated with Dex, three clusters of n = 3, replicates. The protocol: (A) DUSP22 expression in aged individuals (over 70 years, n = 15) and aged individuals diagnosed with sarcopenia (over 70 years, n = 18), p = 0.0009 (obtained from the Singapore Sarcopenia Study; (GEO accession no. GSE111016 (Migliavacca et al, [2019])). (B) DUSP22 expression in C2C12 murine myotubes treated with vehicle or dexamethasone (Dex) to induce atrophy (n = 3 each) Custer 1 (p = 0.024), Cluster 2 (p = 0.13), Cluster 3 (p = 0.0246). Expression was measured using RNA Seq. TPM=transcript per million. (C) qPCR analysis of DUSP22 expression in four models of muscle atrophy: (1) C2C12 myotubes treated with Dex (n = 5), p = 7.67E−05, (2) the TA muscle of C57BL/6 mice treated with Dex (n = 4), p = 0.09, (3) the TA muscle of young (5 months-old, n = 9) and geriatric (27 months-old, n = 8) C57BL/6 mice, p = 0.0324, (4) the TA of C57BL/6 mice after hind limb immobilization (n = 3), p = 0.018. (D) qPCR of DUSP22 expression in C2C12 myoblasts transfected with a DUSP22 CRISPR activation plasmid (DUSP22^endoOE) or control plasmid (CON^endoOE) (n = 3), p = 0.0022. (E) Fast myosin (MYH2) immunocytochemistry of CON^endoOE and DUSP22^endoOE myoblasts after 96 h culture in DM (scale bar = 100 µm). (F) Fusion index (n = 6). (G) Differentiation index (n = 6), p = 9.91E−09. […]

Several values for one entry are separate records, joined by “and”; a condition that tells them apart may be missing. Identical values can stand only once. Entries after “also recorded” stand apart in the source; their conditions may differ. Like-named read-outs stand apart in the source and are kept apart here.

As usually defined, the IC50 is the concentration that gives 50% inhibition. What is called half-life is the time in which the quantity being followed falls by half. Consider `O=C(O)c1ccc(N2C(=O)C(=Cc3ccccc3)SC2=S)cc1` (stereo in doubt) [BML-260], for which, in the data set with DUSP22 (EGF-R peptide P32-based assay), the IC50 is 18 µM. In the data set with DUSP22, the “IC50 for DUSP22 (in words)” value is listed as “low micromolar range”. In addition, in the data set on DUSP22, the “mode of DUSP22 inhibition” value is reported as “competitive inhibitor”. Besides, the “Plasma Conc.” value in data set [1] (0.25 h, individual animals) was 15.310 ng/mL and 14.890 ng/mL; in data set [1] (0.5 h, individual animals), 9.450 ng/mL and 9.888 ng/mL; in data set [1] (1.5 h, individual animals), 6.230 ng/mL and 6.772 ng/mL; in data set [1] (2 h, individual animals) it was 5.288 ng/mL and 4.936 ng/mL; in data set [1] (8 h, individual animals), 0.232 ng/mL and 0.333 ng/mL; in data set [1] (12 h, individual animals), “BQL”. The “Plasma Conc.” value in data set [1] (24 h, individual animals) is listed as “BQL”. The “Plasma Conc., Mean” value is reported as “BQL” in data set [1] (12 h, n = 3) and “BQL” in data set [1] (24 h, n = 3). The “detection in plasma after IP delivery” value in data set [1] (5 mg/kg IP) was “detectable in the plasma immediately after intraperitoneal; also recorded: could be detected in the plasma”. Further, in data set [1] (5 mg/kg IP, as read by referee #2), the “time by which plasma concentration is undetectable” value is ~ 8 hours. Besides, in data set [1] (5 mg/kg IP, as read by referee #2 from the PK figure), the “peak plasma concentration after injection” value is on record as 16. The concentration at 0.25 h in data set [1] (male, C57BL/6J, mouse, plasma, 0.25 h, individual animals, read-out: Plasma Conc.) stood at 18.1 ng/mL; in data set [1] (male, C57BL/6J, mouse, plasma, 0.25 h, n = 3, read-out: Plasma Conc., Mean) it was 16.1 ng/mL. The concentration at 0.5 h turned out to be 11.4 ng/mL in data set [1] (male, C57BL/6J, mouse, plasma, 0.5 h, individual animals, read-out: Plasma Conc.) and 10.3 ng/mL in data set [1] (male, C57BL/6J, mouse, plasma, 0.5 h, n = 3, read-out: Plasma Conc., Mean). Further, the concentration at 1.5 h was found to be 6.66 ng/mL in data set [1] (male, C57BL/6J, mouse, plasma, 1.5 h, individual animals, read-out: Plasma Conc.) and 6.55 ng/mL in data set [1] (male, C57BL/6J, mouse, plasma, 1.5 h, n = 3, read-out: Plasma Conc., Mean). Also, the concentration at 2 h in data set [1] (male, C57BL/6J, mouse, plasma, 2 h, individual animals, read-out: Plasma Conc.) was determined as 4.85 ng/mL; in data set [1] (male, C57BL/6J, mouse, plasma, 2 h, n = 3, read-out: Plasma Conc., Mean), 5.03 ng/mL. The concentration at 8 h in data set [1] (male, C57BL/6J, mouse, plasma, 8 h, individual animals, read-out: Plasma Conc.) was determined as 0.248 ng/mL; in data set [1] (male, C57BL/6J, mouse, plasma, 8 h, n = 3, read-out: Plasma Conc., Mean), 0.271 ng/mL. The half-life in data set [1] (male, C57BL/6J, mouse, plasma, 5 mg/kg IP, as read by referee #2) was about 1 h.

Turning to `C[C@@H]1C[C@H]2[C@@H]3CCC4=CC(=O)C=C[C@]4(C)[C@@]3(F)[C@@H](O)C[C@]2(C)[C@@]1(O)C(=O)CO` [Dex, dexamethasone], in the data set on C2C12 murine myotubes, the “DUSP22 expression, RNA Seq” value is 18.5715 TPM and 15.8769 TPM and 15.1133 TPM and 25.7965 TPM and 17.3247 TPM and 20.9604 TPM and 20.6804 TPM and 15.7123 TPM and 15.7246 TPM.
